The record followed here is patent publication US9926281B2 (priority 2014, dated 2018).

For one test, the target named is human TACE (Homo sapiens (Human), UniProt P78536). The conditions noted are these: read-out: TACE potency IC50.
A further test addresses human MMP13 (Homo sapiens (Human), UniProt P45452). Particulars: read-out: hMMP-13 potency IC50.
Test [1] has as its target T1, human ADAMTS-5 (Homo sapiens (Human), UniProt Q9UNA0). Particulars: read-out: hADAMTS-5 potency IC50.
The target of a further test is rnADAMTS-5 (1-564-6H) (Rattus norvegicus, UniProt Q6TY19). The conditions noted are these: read-out: Rat ADAMTS-5 potency IC50.
For test [2], the target named is T1, human ADAMTS-5. Particulars: read-out: hADAMTS-5 potency IC50. This is another data set of the same source.
Procedure: Finally, the fluorescence is read on the Envision (Perkin Elmer) after an incubation of 90 min at 37° C.

Read-outs that look alike come from different tables or passages of the source.

T1 sequence (Q9UNA0 262-930): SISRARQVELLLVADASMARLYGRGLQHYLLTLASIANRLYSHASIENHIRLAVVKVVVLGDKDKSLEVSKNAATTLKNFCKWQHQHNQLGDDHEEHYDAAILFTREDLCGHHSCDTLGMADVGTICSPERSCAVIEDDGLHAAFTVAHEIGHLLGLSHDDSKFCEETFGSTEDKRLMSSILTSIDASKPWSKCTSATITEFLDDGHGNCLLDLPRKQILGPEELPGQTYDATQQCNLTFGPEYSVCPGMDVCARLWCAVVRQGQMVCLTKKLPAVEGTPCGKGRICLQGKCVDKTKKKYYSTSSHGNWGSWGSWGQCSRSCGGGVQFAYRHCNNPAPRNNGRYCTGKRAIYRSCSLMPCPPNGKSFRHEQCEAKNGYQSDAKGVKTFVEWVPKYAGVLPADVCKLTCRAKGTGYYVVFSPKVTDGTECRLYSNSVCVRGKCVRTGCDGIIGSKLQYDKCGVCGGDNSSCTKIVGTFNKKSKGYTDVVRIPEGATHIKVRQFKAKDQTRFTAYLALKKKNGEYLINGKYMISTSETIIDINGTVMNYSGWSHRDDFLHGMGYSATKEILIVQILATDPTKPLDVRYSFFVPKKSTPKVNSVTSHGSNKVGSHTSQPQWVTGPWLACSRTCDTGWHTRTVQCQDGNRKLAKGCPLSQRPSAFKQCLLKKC
human TACE, sequence (P78536 whole entry, looked up, change not shown): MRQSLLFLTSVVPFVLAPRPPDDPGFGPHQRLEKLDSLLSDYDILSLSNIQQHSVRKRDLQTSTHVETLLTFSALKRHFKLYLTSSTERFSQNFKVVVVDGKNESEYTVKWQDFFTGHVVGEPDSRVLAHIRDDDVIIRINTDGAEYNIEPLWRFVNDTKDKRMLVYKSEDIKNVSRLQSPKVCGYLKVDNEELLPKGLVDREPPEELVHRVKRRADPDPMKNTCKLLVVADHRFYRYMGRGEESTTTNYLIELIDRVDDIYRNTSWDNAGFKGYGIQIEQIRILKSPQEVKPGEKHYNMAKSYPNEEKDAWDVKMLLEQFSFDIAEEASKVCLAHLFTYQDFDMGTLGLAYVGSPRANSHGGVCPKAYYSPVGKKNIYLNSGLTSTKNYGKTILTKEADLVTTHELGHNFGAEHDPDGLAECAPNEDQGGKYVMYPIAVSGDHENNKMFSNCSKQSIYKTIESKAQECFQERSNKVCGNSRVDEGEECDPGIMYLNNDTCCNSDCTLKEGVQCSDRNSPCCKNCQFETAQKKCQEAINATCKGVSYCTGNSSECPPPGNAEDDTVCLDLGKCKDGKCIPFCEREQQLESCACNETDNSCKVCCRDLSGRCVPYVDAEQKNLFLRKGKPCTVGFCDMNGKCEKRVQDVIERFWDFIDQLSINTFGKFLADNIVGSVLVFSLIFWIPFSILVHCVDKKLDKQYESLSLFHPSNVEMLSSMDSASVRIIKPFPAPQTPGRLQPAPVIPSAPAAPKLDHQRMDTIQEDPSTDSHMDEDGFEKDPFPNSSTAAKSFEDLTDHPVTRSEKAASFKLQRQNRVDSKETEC
Procedure for human MMP13: Human MMP13 is preactivated by incubated the enzyme in the same buffer complemented with 1 mM freshly prepared p-Aminophenylmercuric acetate (AMPA) for 1 hour at 37° C.

Regarding `Cc1cc(Cl)ccc1N1CCN(C(=O)CCC2(C)NC(=O)NC2=O)CC1` (centres unmarked) [compound 17, 5-[3-[4-(4-chloro-2-methyl-phenyl)piperazin-1-yl]-3-oxo-propyl]-5-methyl-imidazolidine-2,4-dione], the IC50 was above 4 µM at human TACE, above 20 µM on human MMP13, 2.84 µM at human ADAMTS-5 [1] and above 3.94 µM at rnADAMTS-5 (1-564-6H).
With `CC1(CCC(=O)N2CCN(c3ccccc3Cl)CC2)NC(=O)NC1=O` (centres unmarked) [compound 19, 5-[3-[4-(2-chlorophenyl)piperazin-1-yl]-3-oxo-propyl]-5-methyl-imidazolidine-2,4-dione], the IC50 on human ADAMTS-5 [1], on human ADAMTS-5 [2] and on rnADAMTS-5 (1-564-6H) was above 4 µM throughout.
In the case of `Cc1ccc(Cl)cc1N1CCN(C(=O)CCC2(c3ccccc3)NC(=O)NC2=O)CC1` (centres unmarked) [compound 24, 5-[3-[4-(5-chloro-2-methyl-phenyl)piperazin-1-yl]-3-oxo-propyl]-5-phenyl-imidazolidine-2,4-dione], the IC50 at human TACE amounted to 0.298 µM; at human ADAMTS-5 [1], 0.093 µM; on rnADAMTS-5 (1-564-6H), 0.132 µM.
As for `Cc1ccc(Cl)cc1N1CCN(C(=O)CCC2(C(C)C)NC(=O)NC2=O)CC1` (centres unmarked) [compound 33, 5-[3-[4-(5-chloro-2-methyl-phenyl)piperazin-1-yl]-3-oxo-propyl]-5-isopropyl-imidazolidine-2,4-dione], the values for the IC50 at human TACE, at human ADAMTS-5 [1] and on rnADAMTS-5 (1-564-6H) were 0.429 µM, 0.134 µM and 0.178 µM, respectively.
Turning to `Cc1ccccc1N1CCN(C(=O)CCC2(C3CC3)NC(=O)NC2=O)CC1` (centres unmarked) [compound 35, 5-cyclopropyl-5-[3-[4-(o-tolyl)piperazin-1-yl]-3-oxo-propyl]imidazolidine-2,4-dione], the IC50 is above 4 µM on human TACE, above 20 µM at human MMP13, 0.099 µM at human ADAMTS-5 [1] and 0.103 µM at rnADAMTS-5 (1-564-6H).
As to `Cc1ccc(Cl)cc1N1CCN(C(=O)CCC2(c3cccnc3)NC(=O)NC2=O)CC1` (centres unmarked) [compound 46, 5-[3-[4-(5-chloro-2-methyl-phenyl)piperazin-1-yl]-3-oxo-propyl]-5-(3-pyridyl)imidazolidine-2,4-dione], the IC50 on human TACE is 0.137 µM; at human ADAMTS-5 [1], 0.035 µM; on rnADAMTS-5 (1-564-6H), 0.042 µM.
For `CC1(CCC(=O)N2CCN(c3ccc(Cl)c(F)c3)CC2)NC(=O)NC1=O` (centres unmarked) [compound 49, 5-[3-[4-(4-chloro-3-fluoro-phenyl)piperazin-1-yl]-3-oxo-propyl]-5-methyl-imidazolidine-2,4-dione], the IC50 at human TACE was above 20 µM; at human ADAMTS-5 [1] it was 0.127 µM; at rnADAMTS-5 (1-564-6H) it was 0.141 µM.
In the case of `CC(C)C1(CCC(=O)N2CCN(c3cc(Cl)cc(Cl)c3)CC2)NC(=O)NC1=O` (centres unmarked) [compound 54, 5-[3-[4-(3,5-dichlorophenyl)piperazin-1-yl]-3-oxo-propyl]-5-isopropyl-imidazolidine-2,4-dione], the IC50 is 2.27 µM at human TACE, above 20 µM at human MMP13, 0.061 µM on human ADAMTS-5 [1] and 0.091 µM on rnADAMTS-5 (1-564-6H).
Take `O=C1NC(=O)C(CCC(=O)N2CCN(c3cccc(Cl)c3)CC2)(c2cccnc2)N1` (centres unmarked) [compound 56, 5-[3-[4-(3-chlorophenyl)piperazin-1-yl]-3-oxo-propyl]-5-(3-pyridyl)imidazolidine-2,4-dione]: the figures for the IC50 on human TACE, at human ADAMTS-5 [1] and at rnADAMTS-5 (1-564-6H) were 3.19 µM, 0.038 µM and 0.072 µM, respectively.
For `Cc1cccc(N2CCN(C(=O)CCC3(C4CC4)NC(=O)NC3=O)CC2)c1C` (centres unmarked) [compound 57, 5-cyclopropyl-5-[3-[4-(2,3-dimethylphenyl)piperazin-1-yl]-3-oxo-propyl]imidazolidine-2,4-dione], in that order: above 12 µM, 0.093 µM and 0.117 µM.
With `Cc1ccccc1N1CCN(C(=O)CCC2(c3cccnc3)NC(=O)NC2=O)CC1` (centres unmarked) [compound 64, 5-[3-[4-(o-tolyl)piperazin-1-yl]-3-oxo-propyl]-5-(3-pyridyl)imidazolidine-2,4-dine], the IC50 at human TACE was 3.14 µM; at human MMP13, above 20 µM; at human ADAMTS-5 [1] it was 0.125 µM; at rnADAMTS-5 (1-564-6H), 0.165 µM.
For the compound `Cc1ccc(Cl)cc1N1CCN(C(=O)CCC2(c3ccccn3)NC(=O)NC2=O)CC1` (centres unmarked) [compound 65, 5-[3-[4-(5-chloro-2-methyl-phenyl)piperazin-1-yl]-3-oxo-propyl]-5-(2-pyridyl)imidazolidine-2,4-dione], the IC50 at human TACE is 0.056 µM; at human MMP13, above 20 µM; on human ADAMTS-5 [1], 0.05 µM; at rnADAMTS-5 (1-564-6H) it was 0.065 µM.
As for `CC1(CCC(=O)N2CCN(c3ccc(F)cc3)CC2)NC(=O)NC1=O` (centres unmarked) [compound 66, 5-[3-[4-(4-fluorophenyl)piperazin-1-yl]-3-oxo-propyl]-5-methyl-imidazolidine-2,4-dione], the IC50 at human TACE was above 20 µM; on human MMP13, above 20 µM; at human ADAMTS-5 [1], 1.31 µM; at rnADAMTS-5 (1-564-6H) it was 1.37 µM.
Consider `O=C1NC(=O)C(CCC(=O)N2CCN(c3cccc(Cl)c3)CC2)(C2CCC2)N1` (centres unmarked) [compound 70, 5-[3-[4-(3-chlorophenyl)piperazin-1-yl]-3-oxo-propyl]-5-cyclobutyl-imidazolidine-2,4-dione], for which the IC50 is above 20 µM at human TACE, above 4 µM on human MMP13, 0.253 µM on human ADAMTS-5 [1] and 0.205 µM at rnADAMTS-5 (1-564-6H).
In the case of `O=C1NC(=O)C(CCC(=O)N2CCN(c3cccc(Cl)c3)CC2)(c2ccc(Cl)cc2)N1` (centres unmarked) [compound 74, 5-(4-chlorophenyl)-5-[3-[4-(3-chlorophenyl)piperazin-1-yl]-3-oxo-propyl]imidazolidine-2,4-dione], the IC50 on human MMP13 stood at 2.66 µM; on human ADAMTS-5 [1] it was 0.089 µM; on rnADAMTS-5 (1-564-6H), 0.106 µM.
Consider `Cc1ccc(C2(CCC(=O)N3CCN(c4cccc(Cl)c4)CC3)NC(=O)NC2=O)cc1` (centres unmarked) [compound 76, 5-[3-[4-(3-chlorophenyl)piperazin-1-yl]-3-oxo-propyl]-5-(p-toy)imidazolidine-2,4-dione], for which the IC50 at human TACE was 1.78 µM; at human MMP13 it was 2.06 µM; at human ADAMTS-5 [1] it was 0.091 µM; on rnADAMTS-5 (1-564-6H) it was 0.102 µM.
For `COc1ccc(C2(CCC(=O)N3CCN(c4cccc(Cl)c4)CC3)NC(=O)NC2=O)cc1` (centres unmarked) [compound 78, 5-[3-[4-(3-chlorophenyl)piperazin-1-yl]-3-oxo-propyl]-5-(4-methoxyphenyl)imidazolidine-2,4-dione], in that order: 2.66 µM, 2.1 µM, 0.079 µM and 0.096 µM.
Turning to `COc1ccc(C2(CCC(=O)N3CCN(c4cc(Cl)ccc4C)CC3)NC(=O)NC2=O)cc1` (centres unmarked) [compound 79, 5-[3-[4-(5-chloro-2-methyl-phenyl)piperazin-1-yl]-3-oxo-propyl]-5-(4-methoxyphenyl)imidazolidine-2,4-dione], the IC50 was 0.277 µM at human TACE, above 20 µM on human MMP13, 0.053 µM at human ADAMTS-5 [1] and 0.053 µM at rnADAMTS-5 (1-564-6H).
As for `CN(C)CCOc1ccc(C2(CCC(=O)N3CCN(c4cccc(Cl)c4)CC3)NC(=O)NC2=O)cc1` (centres unmarked) [compound 80, 5-[3-[4-(3-chlorophenyl)piperazin-1-yl]-3-oxo-propyl]-5-[4-(2-dimethylaminoethyloxy)phenyl]imidazolidine-2,4-dione], the IC50 is above 20 µM at human TACE, 3.79 µM at human MMP13, 0.257 µM on human ADAMTS-5 [1] and 0.429 µM at rnADAMTS-5 (1-564-6H).
As to `CC1(CCC(=O)N2CCN(c3cncc(Cl)c3)CC2)NC(=O)NC1=O` (centres unmarked) [compound 85, 5-[3-[4-(5-chloro-3-pyridyl)piperazin-1-yl]-3-oxo-propyl]-5-methyl-imidazolidine-2,4-dione], the IC50 at human TACE is above 4 µM; at human MMP13, above 20 µM; at human ADAMTS-5 [1], 1.27 µM; at rnADAMTS-5 (1-564-6H), 1.11 µM.
In the case of `CC1(CCC(=O)N2CCN(c3cncc(Br)c3)CC2)NC(=O)NC1=O` (centres unmarked) [compound 86, 5-[3-[4-(5-bromo-3-pyridyl)piperazin-1-yl]-3-oxo-propyl]-5-methyl-imidazolidine-2,4-dione], the IC50 is above 4 µM at human TACE, above 20 µM at human MMP13, 1.7 µM on human ADAMTS-5 [1] and 1.79 µM on rnADAMTS-5 (1-564-6H).
Take `Cc1ccc(C)c(N2CCN(C(=O)CCC3(c4ccccn4)NC(=O)NC3=O)CC2)c1` (centres unmarked) [compound 87, 5-[3-[4-(2,5-dimethylphenyl)piperazin-1-yl]-3-oxo-propyl]-5-(2-pyridyl)imidazolidine-2,4-dione]: the IC50 is 0.12 µM at human TACE, above 20 µM at human MMP13, 0.137 µM on human ADAMTS-5 [1] and 0.113 µM on rnADAMTS-5 (1-564-6H).
For the compound `Cc1ccc(C)c(N2CCN(C(=O)CCC3(c4cccnc4)NC(=O)NC3=O)CC2)c1` (centres unmarked) [compound 88, 5-[3-[4-(2,5-dimethylphenyl)piperazin-1-yl]-3-oxo-propyl]-5-(3-pyridyl)imidazolidine-2,4-dione], the IC50 on human TACE was 0.211 µM; at human MMP13, above 20 µM; on human ADAMTS-5 [1] it was 0.119 µM; at rnADAMTS-5 (1-564-6H) it was 0.119 µM.
`O=C1NC(=O)C(CCC(=O)N2CCN(c3ccc(F)c(F)c3)CC2)(c2cccnc2)N1` (centres unmarked) [compound 90, 5-[3-[4-(3,4-difluorophenyl)piperazin-1-yl]-3-oxo-propyl]-5-(3-pyridyl)imidazolidine-2,4-dione]: the IC50 is above 4 µM on human TACE, 1.21 µM at human MMP13, 0.085 µM at human ADAMTS-5 [1] and 0.07 µM on rnADAMTS-5 (1-564-6H).
`O=C1NC(=O)C(CCC(=O)N2CCN(c3ccc(F)c(Cl)c3)CC2)(c2cccnc2)N1` (centres unmarked) [compound 91, 5-[3-[4-(3-chloro-4-fluoro-phenyl)piperazin-1-yl]-3-oxo-propyl]-5-(3-pyridyl)imidazolidine-2,4-dione]: the IC50 was above 4 µM on human TACE, 1.68 µM on human MMP13, 0.095 µM on human ADAMTS-5 [1] and 0.069 µM on rnADAMTS-5 (1-564-6H).
